# In PMC10301603, “Potent and Selective Benzothiazole-Based Antimitotics with Improved Water Solubility: Design, Synthesis, and Evaluation as Novel Anticancer Agents” (Pharmaceutics, 2023):
# Experiments:
# Type in all cases: cell-based, human
# [1] = test system: HepG2 cells; assay: Cell growth inhibition assay (MTT)
# Method in brief: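 Cells in DMEM with 10% FBS attached for 24 h, then treated 72 h; MTT read-out. Single-point screen at 10 µM, IC50 from 10^−10 to 10^−2 M series in triplicate, three experiments; efflux sensitivity assessed with 10 µM verapamil.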
# [2] = test system: PC-3 cells; assay: Cell growth inhibition assay (MTT)
# Method in brief: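 Following overnight (24 h) attachment, cultures received serial compound concentrations from 10^−10 to 10^−2 M and were incubated 72 h before MTT viability measurement. Where efflux-pump sensitivity was tested, IC50 was redetermined with 10 µM verapamil present.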
# [3] = test system: HeLa cells; assay: Cell cycle analysis (PI, flow cytometry); conditions: 8 and 14 200 nM, 9 500 nM
# Description: (§1) An amount of 8 × 10^4 cells/mL (HeLa, MCF7, or U87 MG cells) were seeded in 6-well plates (2 mL/well) and incubated in complete DMEM medium (see above) at 37 °C and 5% CO2 atmosphere for 24 h. Then, the medium was replaced with fresh complete DMEM in the presence or absence of the selected compounds (8, 9, and 14). The concentration of the compounds was selected according to their IC50 value for the antiproliferative activity in each cell line (see above, Section 2.4.4). HeLa cells were treated with 200 nM of compounds 8 and 14 and 500 nM of compound 9; MCF7 cells were treated with 100 nM of compounds 8 and 14 and 500 nM of compound 9; and U87 MG cells were treated with 50 nM of compound 8 and 100 nM of compounds 9 and 14. Untreated cells were used as negative controls. Cells were harvested 24, 48, or 72 h following treatment and fixed in ice-cold ethanol/PBS (7:3) overnight. Cells were then washed twice with PBS, suspended in PBS, and incubated overnight in darkness with 0.2 mg/mL RNase A (Sigma-Aldrich, St. Louis, MO, USA), 50 µg/mL propidium iodide (Sigma-Aldrich, St. Louis, MO, USA), and Triton 10× at room temperature. BD Accuri™ C6 Plus Flow Cytometer (BD Biosciences) was used to analyze samples, and BD Accuri™ C6 Software (version 1.0.264.21) was used for data analysis.
# [4] = test system: MCF7 cells; assay: Cell cycle analysis (PI, flow cytometry); conditions: 8 and 14 100 nM, 9 500 nM
# Description: as §1
# [5] = test system: HeLa cells; assay: Immunofluorescence of cellular microtubules (confocal microscopy); conditions: 24 h, 8 and 14 200 nM, 9 500 nM
# Description: (§2) The 8 × 10^4 HeLa, MCF7, and U87 MG cells were seeded on 0.01% poly-L-lysine pre-coated square glass coverslips ([…]) deposited on 6-well plates (1 coverslip/well) and incubated in complete DMEM medium (see above) at 37 °C and 5% CO2 atmosphere for 24 h. Then, the culture medium was replaced by fresh complete DMEM, and cells were incubated in the presence or absence of selected compounds for 24 h. Untreated cells were used as negative controls. […] In that way, compounds with similar antiproliferative potencies were tested at the same concentrations. HeLa cells were treated with 200 nM of compounds 8 and 14 and 500 nM of compound 9; MCF7 cells were treated with 100 nM of compounds 8 and 14 and 500 nM of compound 9; and U87 MG cells were treated with 50 nM of compound 8 and 100 nM of compounds 9 and 14. After incubation, medium was removed and coverslips were washed three times with PBS, fixed in 4% formaldehyde in PBS for 10 min, permeabilized with 0.5% Triton X-100 (Sigma-Aldrich, St. Louis, MO, USA) in PBS for 90 s at 4 °C, and blocked with 10% BSA in PBS for 30 min. After four washes with PBS, the coverslips were incubated for 1 h with anti-α-tubulin mouse monoclonal antibody (Sigma-Aldrich, St. Louis, MO, USA), and diluted 1:200 in PBS containing 3% BSA. After four washes wish PBS, coverslips were incubated, in darkness, with fluorescent secondary antibody Alexa Fluor 488 goat anti-mouse IgG (Molecular Probes, Invitrogen, Eugenen, OR, USA), and diluted 1:400 in PBS containing 1% BSA for 1.5 h. After four washes with PBS, a drop of ProLong™ Gold Antifade Mountant containing DAPI (ThermoFisher, Waltham, MA, USA) was added for cell nuclei staining. Samples were analyzed via confocal microscopy using a LEICA SP5 microscope DMI-6000V model coupled to a LEICA LAS AF software computer.
# [6] = test system: MCF7 cells; assay: as above; conditions: MCF7, 24 h; 8 and 14 100 nM, 9 500 nM
# Description: as §2
SMILES,IC50 ([1]; 72 h after drug exposure),IC50 ([2]; 72 h after drug exposure),G2/M population ([3]; 24 h),G2/M population ([3]; 48 h),sub G0/G1 population ([3]; 48 h),sub G0/G1 population ([3]; 72 h),"G2/M population ([4]; MCF7, 24 h)","SubG0/G1 population ([4]; MCF7, 48 h)","SubG0/G1 population ([4]; MCF7, 72 h)",effect on the microtubule network [5],effect on the microtubule network [6],"IC50 ([1]; Homo sapiens, HepG2, 72 h after drug exposure)","IC50 ([2]; Homo sapiens, PC-3, 72 h after drug exposure)","G2/M population ([4]; MCF7, 48 h)","G2/M population ([4]; MCF7, 72 h)"
CCNC(=O)N(Cc1cccnc1)c1nc2ccc(OC)cc2s1 [Compound 8],0.094 µM,0.161 µM,80%,58%,14–18%,52%,32%,9%,26%,disruption of the microtubule network,disruption of the microtubule network,,,,
"COc1ccc2nc(N(C=O)Cc3cccnc3)sc2c1 [Compound 14, N-(6-methoxybenzo[d]thiazol-2-yl)-N-(pyridin-3-ylmethyl)formamide]",,,56%,60%,14–18%,43%,40%,27%,33%,disruption of the microtubule network,disruption of the microtubule network,0.083 µM,0.195 µM,30–35%,30–35%
